Data set [1] addresses T1, GR (Homo sapiens, UniProt P04150).
T1 construct: expressed in transfected cells; host or cells: CHO-K1
T1 sequence (P04150 1-777): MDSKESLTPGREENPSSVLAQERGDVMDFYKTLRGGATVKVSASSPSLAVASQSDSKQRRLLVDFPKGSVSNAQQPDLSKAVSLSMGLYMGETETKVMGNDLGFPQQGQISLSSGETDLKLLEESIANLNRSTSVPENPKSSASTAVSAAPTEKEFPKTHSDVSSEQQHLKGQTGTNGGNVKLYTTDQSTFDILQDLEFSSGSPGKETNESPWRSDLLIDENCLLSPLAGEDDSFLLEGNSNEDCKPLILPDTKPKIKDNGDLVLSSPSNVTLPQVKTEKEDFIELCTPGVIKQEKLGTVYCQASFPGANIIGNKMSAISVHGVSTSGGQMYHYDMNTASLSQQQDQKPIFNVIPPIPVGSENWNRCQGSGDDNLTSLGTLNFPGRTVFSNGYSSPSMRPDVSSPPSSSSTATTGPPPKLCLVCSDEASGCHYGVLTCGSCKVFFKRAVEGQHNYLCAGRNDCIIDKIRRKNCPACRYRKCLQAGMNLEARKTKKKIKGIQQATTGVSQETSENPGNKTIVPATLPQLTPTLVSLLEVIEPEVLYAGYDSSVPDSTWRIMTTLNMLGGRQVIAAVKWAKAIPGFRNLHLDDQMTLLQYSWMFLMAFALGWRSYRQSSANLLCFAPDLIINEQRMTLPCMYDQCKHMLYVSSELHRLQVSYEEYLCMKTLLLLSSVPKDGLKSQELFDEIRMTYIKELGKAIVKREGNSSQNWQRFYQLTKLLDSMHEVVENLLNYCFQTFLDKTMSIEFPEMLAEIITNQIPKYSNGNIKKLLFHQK
The experiment in a line: In Vitro GR Luciferase Reporter Assay (antagonist mode, CHO-K1-GR-MMTV-Luc reporter cells). It is filed as cell-based. The conditions noted are these: antagonist mode, 10 nM Dexamethasone. The gist of the method:
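Antagonist mode: compounds (8 serial 1:5 dilutions) added to GR-MMTV-luciferase CHO-K1 reporter cells co-exposed to 10 nM dexamethasone final, in phenol red-free DMEM plus 10% CSS. After roughly 18-24 h at 37° C, OneGlo luminescence read and IC50 calculated.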
A general note: A reporter such as luciferase makes a cellular process visible.

Data set [2] addresses T2, CYP2C8 (Homo sapiens, UniProt P10632).
T2 construct: Pooled human microsomes were obtained from Sekisui XenoTech, KS; tissue Sekisui XenoTech, KS; host or cells: pooled human liver microsomes
T2 sequence (P10632 1-490): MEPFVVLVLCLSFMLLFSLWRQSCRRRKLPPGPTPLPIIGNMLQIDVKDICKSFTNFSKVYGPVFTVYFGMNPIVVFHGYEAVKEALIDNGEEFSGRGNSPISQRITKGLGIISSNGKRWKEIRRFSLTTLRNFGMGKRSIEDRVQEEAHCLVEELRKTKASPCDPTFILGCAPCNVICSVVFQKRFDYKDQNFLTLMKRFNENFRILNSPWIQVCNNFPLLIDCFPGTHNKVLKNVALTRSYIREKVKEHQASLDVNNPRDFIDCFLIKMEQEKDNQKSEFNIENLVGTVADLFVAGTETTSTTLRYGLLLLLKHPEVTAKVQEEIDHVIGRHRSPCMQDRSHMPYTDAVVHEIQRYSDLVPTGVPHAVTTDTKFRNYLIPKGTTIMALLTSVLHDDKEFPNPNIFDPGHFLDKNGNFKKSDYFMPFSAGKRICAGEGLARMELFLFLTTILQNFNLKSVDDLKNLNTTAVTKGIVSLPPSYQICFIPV
The experiment in a line: CYP Inhibition Assay (CYP2C8, human liver microsomes, paclitaxel substrate). Format: in vitro ADME. The conditions noted are these: pH 7.4; pooled human liver microsomes 0.1 mg/mL, probe substrate paclitaxel. A digest of the protocol:
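CYP2C8 activity read as 6α-hydroxypaclitaxel formation by LC-MS/MS, with % inhibition versus vehicle control. Reactions ran 5 min at 37° C, pH 7.4 phosphate buffer, 0.1 mg/mL pooled human liver microsomes, 1 mM NADPH, duplicate wells.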
A general note: Microsomes from liver hold many membrane-bound enzymes, among them those of drug oxidation.

The structures appear in SMILES notation.

A word on the IC50: it is the concentration needed to halve the response being measured. A higher IC50 goes with a need for much substance. In general, inhibition refers to the percentage by which the read-out fell short of the control.

For `Cn1cc(S(=O)(=O)N(CC(F)F)[C@H]2CCC3=Cc4c(cnn4-c4ccc(F)cc4)C[C@]3(C(=O)c3cc(C(F)(F)F)ccn3)C2)nn1` [Example 311, N-(2,2-difluoroethyl)-N-((4aS,6S)-1-(4-fluorophenyl)-4a-(4-(trifluoromethyl)picolinoyl)-4,4a,5,6,7,8-hexahydro-1H-benzo[f]indazol-6-yl)-1-methyl-1H-1,2,3-triazole-4-sulfonamide], in data set [1], the concentration for half-maximal inhibition (IC50) was ≤ 100 nM. The inhibition at 5 min in data set [2] is ≤ 25%.
The like results for `O=C(c1ncc(C(F)(F)F)s1)[C@]12Cc3cnn(-c4ccc(F)cc4)c3C=C1CC[C@H](N(CC(F)(F)F)S(=O)(=O)c1ccc(Cl)nc1)C2` [Example 312, 6-chloro-N-((4aS,6S)-1-(4-fluorophenyl)-4a-(5-(trifluoromethyl)thiazole-2-carbonyl)-4,4a,5,6,7,8-hexahydro-1H-benzo[f]indazol-6-yl)-N-(2,2,2-trifluoroethyl)pyridine-3-sulfonamide] were, in that order, ≤ 100 nM and 25 to 50%.
`Cn1ccc(S(=O)(=O)N(CC(F)F)[C@H]2CCC3=Cc4c(cnn4-c4ccc(F)cc4)C[C@]3(C(=O)c3cc(C(F)(F)F)ccn3)C2)n1` [Example 313, N-(2,2-difluoroethyl)-N-((4aS,6S)-1-(4-fluorophenyl)-4a-(4-(trifluoromethyl)picolinoyl)-4,4a,5,6,7,8-hexahydro-1H-benzo[f]indazol-6-yl)-1-methyl-1H-pyrazole-3-sulfonamide]: the IC50 in data set [1] is ≤ 100 nM. Also, in data set [2], the inhibition at 5 min is 25 to 50%.
In the case of `Cn1cnc(S(=O)(=O)N(CC2CC2)[C@H]2CCC3=Cc4c(cnn4-c4ccc(F)cc4)C[C@]3(C(=O)c3ncc(C(F)(F)F)s3)C2)n1` [Example 315, N-(cyclopropylmethyl)-N-((4aS,6S)-1-(4-fluorophenyl)-4a-(5-(trifluoromethyl)thiazole-2-carbonyl)-4,4a,5,6,7,8-hexahydro-1H-benzo[f]indazol-6-yl)-1-methyl-1H-1,2,4-triazole-3-sulfonamide], the IC50 in data set [1] is ≤ 100 nM. This compound also returned an inhibition at 5 min in data set [2] of 25 to 50%.
In the case of `O=C(c1cc(F)ccn1)[C@]12Cc3cnn(-c4ccc(F)cc4)c3C=C1CC[C@H](N(CC1CC1)S(=O)(=O)c1ccc(Cl)nc1)C2` [Example 319, 6-chloro-N-(cyclopropylmethyl)-N-((4aS,6S)-1-(4-fluorophenyl)-4a-(4-fluoropicolinoyl)-4,4a,5,6,7,8-hexahydro-1H-benzo[f]indazol-6-yl)pyridine-3-sulfonamide], the IC50 in data set [1] is ≤ 100 nM. The inhibition at 5 min in data set [2] lay in the range of 50 to 75%.
For `O=C(c1cc(F)ccn1)[C@]12Cc3cnn(-c4ccc(F)cc4)c3C=C1CC[C@H](N(C1CC1)S(=O)(=O)c1ccc(Cl)nc1)C2` [Example 320, 6-chloro-N-cyclopropyl-N-((4aS,6S)-1-(4-fluorophenyl)-4a-(4-fluoropicolinoyl)-4,4a,5,6,7,8-hexahydro-1H-benzo[f]indazol-6-yl)pyridine-3-sulfonamide], in that order: ≤ 100 nM and 25 to 50%.
`O=C(c1cc(Cl)ccn1)[C@]12Cc3cnn(-c4ccc(F)cc4)c3C=C1CC[C@H](N(C1CC1)S(=O)(=O)c1ccc(Cl)nc1)C2` [Example 321, 6-chloro-N-((4aS,6S)-4a-(4-chloropicolinoyl)-1-(4-fluorophenyl)-4,4a,5,6,7,8-hexahydro-1H-benzo[f]indazol-6-yl)-N-cyclopropylpyridine-3-sulfonamide]: the half-maximal inhibitory concentration (IC50) in data set [1] is ≤ 100 nM. Also, in data set [2], the inhibition at 5 min was ≤ 25%.
For `CC(C)N([C@H]1CCC2=Cc3c(cnn3-c3ccc(F)cc3)C[C@]2(C(=O)c2cc(F)ccn2)C1)S(=O)(=O)c1ccc(Cl)nc1` [Example 322, 6-chloro-N-((4aS,6S)-1-(4-fluorophenyl)-4a-(4-fluoropicolinoyl)-4,4a,5,6,7,8-hexahydro-1H-benzo[f]indazol-6-yl)-N-isopropylpyridine-3-sulfonamide], in data set [1], the IC50 was ≤ 100 nM. Moreover, in data set [2], the inhibition at 5 min lay in the range of 25 to 50%.
The like results for `Cn1cnc(S(=O)(=O)N(C2CC(F)(F)C2)[C@H]2CCC3=Cc4c(cnn4-c4ccc(F)cc4)C[C@]3(C(=O)c3ncc(C(F)(F)F)s3)C2)n1` [Example 324, N-(3,3-difluorocyclobutyl)-N-((4aS,6S)-1-(4-fluorophenyl)-4a-(5-(trifluoromethyl)thiazole-2-carbonyl)-4,4a,5,6,7,8-hexahydro-1H-benzo[f]indazol-6-yl)-1-methyl-1H-1,2,4-triazole-3-sulfonamide] were, in that order, ≤ 100 nM and 25 to 50%.
For `Cn1cnc(S(=O)(=O)N(C2CC(F)(F)C2)[C@H]2CCC3=Cc4c(cnn4-c4ccc(F)cc4)C[C@]3(C(=O)c3cc(C(F)(F)F)ccn3)C2)c1` [Example 325, N-(3,3-difluorocyclobutyl)-N-((4aS,6S)-1-(4-fluorophenyl)-4a-(4-(trifluoromethyl)picolinoyl)-4,4a,5,6,7,8-hexahydro-1H-benzo[f]indazol-6-yl)-1-methyl-1H-imidazole-4-sulfonamide], in that order: ≤ 100 nM and ≤ 25%.
The like results for `Cn1ccc(S(=O)(=O)N([C@H]2CCC3=Cc4c(cnn4-c4ccc(F)cc4)C[C@]3(C(=O)c3ncc(C(F)(F)F)s3)C2)[C@H]2C[C@](C)(O)C2)n1` [Example 326, N-((4aS,6S)-1-(4-fluorophenyl)-4a-(5-(trifluoromethyl)thiazole-2-carbonyl)-4,4a,5,6,7,8-hexahydro-1H-benzo[f]indazol-6-yl)-N-((1r,3S)-3-hydroxy-3-methylcyclobutyl)-1-methyl-1H-pyrazole-3-sulfonamide] were, in that order, ≤ 100 nM and 50 to 75%.
Regarding `CC(C)N([C@H]1CCC2=Cc3c(cnn3-c3ccc(F)cc3)C[C@]2(C(=O)c2ncc(C(F)(F)F)s2)C1)S(=O)(=O)c1ncn(C)n1` [Example 327, N-((4aS,6S)-1-(4-fluorophenyl)-4a-(5-(trifluoromethyl)thiazole-2-carbonyl)-4,4a,5,6,7,8-hexahydro-1H-benzo[f]indazol-6-yl)-N-isopropyl-1-methyl-1H-1,2,4-triazole-3-sulfonamide], the 50% inhibitory concentration (IC50) in data set [1] is ≤ 100 nM. For the same compound, the inhibition at 5 min in data set [2] is 25 to 50%.
The like results for `CC(C)N([C@H]1CCC2=Cc3c(cnn3-c3ccc(F)cc3)C[C@]2(C(=O)c2cc(C(F)(F)F)ccn2)C1)S(=O)(=O)c1ncn(C)n1` [Example 328, N-((4aS,6S)-1-(4-fluorophenyl)-4a-(4-(trifluoromethyl)picolinoyl)-4,4a,5,6,7,8-hexahydro-1H-benzo[f]indazol-6-yl)-N-isopropyl-1-methyl-1H-1,2,4-triazole-3-sulfonamide] were, in that order, ≤ 100 nM and 25 to 50%.
For `Cn1cnc(S(=O)(=O)N(C2CC(F)(F)C2)[C@H]2CCC3=Cc4c(cnn4-c4ccc(F)cc4)C[C@]3(C(=O)c3cc(C(F)(F)F)ccn3)C2)n1` [Example 329, N-(3,3-difluorocyclobutyl)-N-((4aS,6S)-1-(4-fluorophenyl)-4a-(4-(trifluoromethyl)picolinoyl)-4,4a,5,6,7,8-hexahydro-1H-benzo[f]indazol-6-yl)-1-methyl-1H-1,2,4-triazole-3-sulfonamide], in that order: ≤ 100 nM and 25 to 50%.
The like results for `Cn1cnc(S(=O)(=O)N(CC(F)F)[C@H]2CCC3=Cc4c(cnn4-c4ccc(F)cc4)C[C@]3(C(=O)c3cc(C(F)(F)F)ccn3)C2)n1` [Example 330, N-(2,2-difluoroethyl)-N-((4aS,6S)-1-(4-fluorophenyl)-4a-(4-(trifluoromethyl)picolinoyl)-4,4a,5,6,7,8-hexahydro-1H-benzo[f]indazol-6-yl)-1-methyl-1H-1,2,4-triazole-3-sulfonamide] were, in that order, ≤ 100 nM and 25 to 50%.

For the origin of these results see patent US20210122730A1, “GLUCOCORTICOID RECEPTOR MODULATORS” (ORIC Pharmaceuticals, Inc., priority 2017, published 2021).
